Measurements: paper PMC11850616, “Nanomolar inhibitor of the galectin-8 N-terminal domain binds via a non-canonical cation-π interaction” (Communications Chemistry, 2025)
Where two headings read alike, the source gives them in different places.

What was measured:
Gal-3 = molecular target: T1, Gal-3 (Homo sapiens, UniProt P17931); test: competitive fluorescence polarisation assay, Gal-3; assay type: binding; design: key to Kd (Galectin-3): n. s.: n.s. = non-soluble at tested concentration; n. b.: n.b. = non-binding up to the highest tested concentration of 1500 µM; details: for Kd / Kd (Galectin-3): competitive FP; for Gal-3 selectivity ratio Kd (Gal-3)/Kd (Gal-8N): ratio of FP Kd values
T1 construct: made in house
Protocol: (§1) Human galectins-1, -3, and -8N were expressed and purified as described previously[8],[23],[24]. Competitive fluorescence polarization assays were performed with a PHERAstar FS plate reader with software PHERAstar Mars version 2.10 R3 (BMG, Offenburg, Germany) and Tecan Spark multimode microplate reader (Tecan Trading AG, Switzerland), where a fluorescence anisotropy of fluorescent-tagged probes was measured by excitation at 485 nm and emission at 520 nm. Experiments were performed at 20 °C with Gal-1 at 0.5 µM, Gal-3 at 0.2 µM, and Gal-8N at 0.4 µM. Fluorescent probes used for experiments were 3,3′-dideoxy-3-[4-(fluorescein-5-yl-carbonylaminomethyl)-1H-1,2,3-triazol-1-yl]-3′-(3,5-di-methoxybenzamido)-1,1′-sulfanediyl-di-β-D-galactopyranoside at 0.02 µM for Gal-1 and -3 and 2-(fluorescein-5-yl-carbonylamino)ethyl β-D-galactopyranosyl(1-4)-2-acetamido-2-deoxy-β-D-glucopyranosyl(1–3)-β-D-galactopyranosyl(1–4)-β-D-glucopyranoside at 0.1 µM for Gal-8N in each well. Compounds were first dissolved in pure DMSO at 20 mM concentration and later diluted in 5% DMSO in PBS solution to 5-7 different concentrations. Each concentration was tested in duplicate. The highest inhibitor concentrations tested were 1.5 mM. The average values of Kd and SEM (standard error mean) were calculated from 4 to 8 duplicate measurements, showing 10–90% inhibition.

Gal-8N = molecular target: T2, Gal-8N (Homo sapiens, UniProt O00214); test: ligand efficiency (LE) and ligand-lipophilicity efficiency (LLE) calculations; details: for LLE: from Gal-8N Kd and clogP; for LE: from Gal-8N Kd and number of non-hydrogen atoms
T2 construct: consisting of residues 4-158 was produced by Lund Protein Production Platform; made in house; host or cells: E. coli TUNER(DE3)
T2 sequence (O00214 4-158): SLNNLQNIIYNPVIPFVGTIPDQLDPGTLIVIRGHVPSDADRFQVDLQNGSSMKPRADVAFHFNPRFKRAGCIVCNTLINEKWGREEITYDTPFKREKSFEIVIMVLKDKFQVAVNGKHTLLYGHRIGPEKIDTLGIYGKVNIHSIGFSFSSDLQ

[1] = molecular target: T3, Gal-8N (galectin-8 N-terminal domain) (Homo sapiens, UniProt O00214); test: competitive fluorescence polarisation assay, Gal-8N; assay type: binding; design: key to Kd (Galectin-8N): n. s.: n.s. = non-soluble at tested concentration; n. b.: n.b. = non-binding up to the highest tested concentration of 1500 µM; details: competitive FP
T3 construct: made in house
T3 sequence (O00214 19-152 limits assumed): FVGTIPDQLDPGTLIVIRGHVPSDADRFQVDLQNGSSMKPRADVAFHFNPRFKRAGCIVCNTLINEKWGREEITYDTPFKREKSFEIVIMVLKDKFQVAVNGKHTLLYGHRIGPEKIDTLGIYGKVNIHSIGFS
Protocol: as §1

Gal-1 = molecular target: T4, Gal-1 (Homo sapiens, UniProt P09382); test: competitive fluorescence polarisation assay, Gal-1; assay type: binding; details: for Kd: competitive FP, mean ± SEM of n = 4 to 8, 20 °C; for Gal-1 selectivity ratio Kd (Gal-1)/Kd (Gal-8N): ratio of FP Kd values
T4 construct: made in house
Protocol: as §1

Gal-8C = molecular target: T5, Gal-8C (Homo sapiens, UniProt O00214); test: competitive fluorescence polarisation assay, Gal-8C; assay type: binding; details: for Kd: competitive FP, mean ± SEM of n = 4 to 8; for Gal-8C selectivity ratio Kd (Gal-8C)/Kd (Gal-8N): ratio of FP Kd values
T5 construct: than to the C-terminal domain (Gal-8C)
T5 sequence (O00214 187-317 limits assumed): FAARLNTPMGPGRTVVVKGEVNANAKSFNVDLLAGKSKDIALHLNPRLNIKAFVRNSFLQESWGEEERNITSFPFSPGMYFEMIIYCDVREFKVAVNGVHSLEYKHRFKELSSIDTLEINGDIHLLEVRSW

[2] = mean ± SEM of n = 4 to 8, 20 °C, read-out: Kd Gal-3
[3] = mean ± SEM of n = 4 to 8, 20 °C, read-out: Kd Gal-8N
[4] = ester compounds, highest tested concentration 1500 µM
[5] = ester compounds, highest tested concentration 1500 µM, read-out: Kd (Galectin-8N)
[6] = ester compounds, highest tested concentration 1500 µM, read-out: Kd (Galectin-3)

T4 sequence (P09382 whole entry): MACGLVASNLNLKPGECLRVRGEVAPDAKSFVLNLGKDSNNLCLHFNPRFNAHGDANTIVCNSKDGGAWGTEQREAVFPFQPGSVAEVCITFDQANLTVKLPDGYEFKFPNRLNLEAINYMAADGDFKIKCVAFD
T1 sequence (P17931 whole entry): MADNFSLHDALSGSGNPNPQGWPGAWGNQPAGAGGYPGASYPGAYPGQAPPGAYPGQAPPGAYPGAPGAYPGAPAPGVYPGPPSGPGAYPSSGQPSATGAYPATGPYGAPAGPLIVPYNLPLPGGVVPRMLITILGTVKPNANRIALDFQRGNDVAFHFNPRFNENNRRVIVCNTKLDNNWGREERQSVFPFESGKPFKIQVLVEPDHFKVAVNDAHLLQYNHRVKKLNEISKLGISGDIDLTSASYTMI

Kd (Gal-3; [2]) [µM] | Gal-3 selectivity ratio Kd (Gal-3)/Kd (Gal-8N) (Gal-3) | LLE (Gal-8N) | LE (Gal-8N) | Kd [1, 3] [µM] | Kd (Gal-1) [µM] | Gal-1 selectivity ratio Kd (Gal-1)/Kd (Gal-8N) (Gal-1) | Kd (Gal-8C) [µM] | Gal-8C selectivity ratio Kd (Gal-8C)/Kd (Gal-8N) (Gal-8C) | Kd (Galectin-3) (Gal-3; [4]) | Kd (Galectin-8N) [1, 4] | Kd [1, 5] [µM] | Kd (Gal-3; [6]) [µM] | SMILES
12 ± 3 | 2.8 | -1.38 | 0.171 (kcal/mol)/heavy atom | 4.3 ± 0.4 | 20 ± 0.84 | 4.7 | 577 ± 4 | 134 | – | – | – | – | Cn1c(CO[C@H]2[C@@H](O)[C@@H](CO)O[C@H](Sc3ccc(Cl)c(Cl)c3)[C@@H]2OCc2ccc(Cl)c(Cl)c2)nc2ccc(C(=O)O)cc21 [Compound 8e]
– | – | – | – | – | – | – | – | – | n. s. | n. s. | – | – | COC(=O)c1ccc2nc(CO[C@H]3[C@@H](O)[C@@H](CO)O[C@H](Sc4ccc(Cl)c(Cl)c4)[C@@H]3OCc3ccccc3)n(C)c2c1 [Compound 7a]
6.2 ± 1.1 | 5.6 | 0.888 | 0.167 (kcal/mol)/heavy atom | 1.1 ± 0.07 | 45 ± 0.8 | 41 | 201 ± 37 | 183 | – | – | – | – | Cn1c(CO[C@H]2[C@@H](O)[C@@H](CO)O[C@H](Sc3ccc(Cl)c(Cl)c3)[C@@H]2OCc2cn(-c3ccc(C(=O)O)cc3)nn2)nc2ccc(C(=O)O)cc21 [Compound 16c]
22 ± 5.5 | 4.9 | 0.0722 | 0.146 (kcal/mol)/heavy atom | 4.5 ± 0.24 | 104 ± 7.4 | 23 | 568 ± 23 | 126 | – | – | – | – | COC(=O)c1cccc(-n2cc(CO[C@@H]3[C@@H](OCc4nc5ccc(C(=O)O)cc5n4C)[C@@H](O)[C@@H](CO)O[C@@H]3Sc3ccc(Cl)c(Cl)c3)nn2)c1 [Compound 15b]
– | – | – | – | – | – | – | – | – | n. s. | n. s. | – | – | COC(=O)c1ccc2nc(CO[C@H]3[C@@H](O)[C@@H](CO)O[C@H](Sc4ccc(Cl)c(Cl)c4)[C@@H]3OCc3ccc(F)cc3)n(C)c2c1 [Compound 7d]
– | – | – | – | – | – | – | – | – | n. s. | n. s. | – | – | COC(=O)c1ccc2nc(CO[C@H]3[C@@H](O)[C@@H](CO)O[C@H](Sc4ccc(Cl)c(Cl)c4)[C@@H]3OCc3ccc(C)cc3)n(C)c2c1 [Compound 7c]
5.9 ± 0.6 | 2.8 | -0.259 | 0.185 (kcal/mol)/heavy atom | 2.1 ± 0.15 | 16 ± 0.75 | 7.6 | 256 ± 24 | 122 | – | – | – | – | Cc1ccc(CO[C@@H]2[C@@H](OCc3nc4ccc(C(=O)O)cc4n3C)[C@@H](O)[C@@H](CO)O[C@@H]2Sc2ccc(Cl)c(Cl)c2)cc1 [Compound 8c]
1.2 ± 0.2 | 2.6 | 1.26 | 0.177 (kcal/mol)/heavy atom | 0.46 ± 0.03 | 26 ± 1.1 | 57 | 159 ± 4 | 346 | – | – | – | – | Cn1c(CO[C@H]2[C@@H](O)[C@@H](CO)O[C@H](Sc3ccc(Cl)c(Cl)c3)[C@@H]2OCc2cn(-c3ccccc3C(=O)O)nn2)nc2ccc(C(=O)O)cc21 [Compound 16a]
– | – | – | – | – | – | – | – | – | n. s. | – | 275 ± 5 | – | C#CCO[C@@H]1[C@@H](OCc2nc3ccc(C(=O)OC)cc3n2C)[C@@H](O)[C@@H](CO)O[C@@H]1Sc1ccc(Cl)c(Cl)c1 [Compound 10]
– | – | – | – | – | – | – | – | – | – | – | > 1500 | > 1500 | COC(=O)c1ccc2nc(CO[C@H]3[C@@H](O)[C@@H](CO)O[C@H](Sc4ccc(Cl)c(Cl)c4)[C@@H]3OCc3cccc(Cl)c3)n(C)c2c1 [Compound 7f]
– | – | – | – | – | – | – | – | – | – | – | > 1500 | > 1500 | COC(=O)c1ccc2nc(CO[C@H]3[C@@H](O)[C@@H](CO)O[C@H](Sc4ccc(Cl)c(Cl)c4)[C@@H]3OCc3ccc(Cl)c(Cl)c3)n(C)c2c1 [Compound 7e]
4.2 ± 0.6 | 2.6 | 0.203 | 0.189 (kcal/mol)/heavy atom | 1.6 ± 0.06 | 14 ± 1.2 | 8.8 | 301 ± 28 | 188 | – | – | – | – | Cn1c(CO[C@H]2[C@@H](O)[C@@H](CO)O[C@H](Sc3ccc(Cl)c(Cl)c3)[C@@H]2OCc2ccc(F)cc2)nc2ccc(C(=O)O)cc21 [Compound 8d]
8.2 ± 0.7 | 3.9 | -0.257 | 0.185 (kcal/mol)/heavy atom | 2.1 ± 0.1 | 19 ± 0.67 | 9 | 303 ± 19 | 144 | – | – | – | – | Cc1cccc(CO[C@@H]2[C@@H](OCc3nc4ccc(C(=O)O)cc4n3C)[C@@H](O)[C@@H](CO)O[C@@H]2Sc2ccc(Cl)c(Cl)c2)c1 [Compound 8b]
21 ± 1.5 | 5.1 | -0.926 | 0.180 (kcal/mol)/heavy atom | 4.1 ± 0.61 | 76 ± 15 | 18.5 | 662 ± 27 | 161 | – | – | – | – | Cn1c(CO[C@H]2[C@@H](O)[C@@H](CO)O[C@H](Sc3ccc(Cl)c(Cl)c3)[C@@H]2OCC2CCCCC2)nc2ccc(C(=O)O)cc21 [Compound 19]
– | – | – | – | – | – | – | – | – | n. s. | n. s. | – | – | COC(=O)c1ccc2nc(CO[C@H]3[C@@H](O)[C@@H](CO)O[C@H](Sc4ccc(Cl)c(Cl)c4)[C@@H]3OCc3cccc(C)c3)n(C)c2c1 [Compound 7b]
– | – | – | – | – | – | – | – | – | n. s. | – | > 1500 | – | COC(=O)c1ccc2nc(CO[C@H]3[C@@H](O)[C@@H](CO)O[C@H](Sc4ccc(Cl)c(Cl)c4)[C@@H]3OCC3CC3)n(C)c2c1 [Compound 21]
– | – | – | – | – | 44.7 ± 4.9 | – | – | – | – | – | 7.7 ± 0.3 | 8.5 ± 1.5 | COC(=O)c1ccc2nc(CO[C@H]3[C@@H](O)[C@@H](CO)O[C@H](Sc4ccc(Cl)c(Cl)c4)[C@@H]3OCC(=O)O)n(C)c2c1 [Compound 28]
– | – | – | – | – | – | – | – | – | n. s. | n. s. | – | – | COC(=O)c1ccc2nc(CO[C@H]3[C@@H](O)[C@@H](CO)O[C@H](Sc4ccc(Cl)c(Cl)c4)[C@@H]3OCC3CCCCC3)n(C)c2c1 [Compound 18]
– | – | – | – | – | – | – | – | – | n. s. | – | 201.7 ± 1.3 | – | COC(=O)c1ccc2nc(CO[C@H]3[C@@H](O)[C@@H](CO)O[C@H](Sc4ccc(Cl)c(Cl)c4)[C@@H]3OCC(=O)OC(C)(C)C)n(C)c2c1 [Compound 27]
– | – | – | – | – | – | – | – | – | – | n. s. | – | 109 ± 31 | COC(=O)c1ccc2nc(CO[C@H]3[C@@H](O)[C@@H](CO)O[C@H](Sc4ccc(Cl)c(Cl)c4)[C@@H]3OC)n(C)c2c1 [Compound 31]

SMILES | Kd (Gal-3; [2]) [µM] | Gal-3 selectivity ratio Kd (Gal-3)/Kd (Gal-8N) (Gal-3) | LLE (Gal-8N) | LE (Gal-8N) | Kd [1, 3] [µM] | Kd (Gal-1) [µM] | Gal-1 selectivity ratio Kd (Gal-1)/Kd (Gal-8N) (Gal-1) | Kd (Gal-8C) [µM] | Gal-8C selectivity ratio Kd (Gal-8C)/Kd (Gal-8N) (Gal-8C) | Kd (Galectin-3) (Gal-3; [4]) | Kd (Galectin-8N) [1, 4] | Kd [1, 5] [µM] | Kd (Gal-3; [6]) [µM]
COC(=O)c1ccc2nc(CO[C@H]3[C@@H](O)[C@@H](CO)O[C@H](Sc4ccc(Cl)c(Cl)c4)[C@@H]3OCC3CCC3)n(C)c2c1 [Compound 24] | – | – | – | – | – | – | – | – | – | n. s. | n. s. | – | –
Cn1c(CO[C@H]2[C@@H](O)[C@@H](CO)O[C@H](Sc3ccc(Cl)c(Cl)c3)[C@@H]2OCC2CCC2)nc2ccc(C(=O)O)cc21 [Compound 25] | 9.4 ± 1.9 | 5.9 | 0.593 | 0.204 (kcal/mol)/heavy atom | 1.6 ± 0.07 | 16 ± 0.5 | 10 | 383 ± 21 | 239 | – | – | – | –
